# Target: T1, JAK2 JH1 JH2 V617F (Homo sapiens, UniProt O60674, V617F)
# T1 construct: JAK2 JH1 JH2 V617F; purchased Thermo Fisher Scientific (Life Technologies) SelectScreen
# Assay: SelectScreen Z'LYTE
# Type: biochemical
# Procedure, shortened: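 SelectScreen broad panel; activity (Z'LYTE, Adapta) plus binding formats. ATP: Km app for CSF1R Z'LYTE; 10 for CAMK1 Adapta. Readout = % per kinase.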
# T1 sequence (O60674 532-1132 V617F limits assumed): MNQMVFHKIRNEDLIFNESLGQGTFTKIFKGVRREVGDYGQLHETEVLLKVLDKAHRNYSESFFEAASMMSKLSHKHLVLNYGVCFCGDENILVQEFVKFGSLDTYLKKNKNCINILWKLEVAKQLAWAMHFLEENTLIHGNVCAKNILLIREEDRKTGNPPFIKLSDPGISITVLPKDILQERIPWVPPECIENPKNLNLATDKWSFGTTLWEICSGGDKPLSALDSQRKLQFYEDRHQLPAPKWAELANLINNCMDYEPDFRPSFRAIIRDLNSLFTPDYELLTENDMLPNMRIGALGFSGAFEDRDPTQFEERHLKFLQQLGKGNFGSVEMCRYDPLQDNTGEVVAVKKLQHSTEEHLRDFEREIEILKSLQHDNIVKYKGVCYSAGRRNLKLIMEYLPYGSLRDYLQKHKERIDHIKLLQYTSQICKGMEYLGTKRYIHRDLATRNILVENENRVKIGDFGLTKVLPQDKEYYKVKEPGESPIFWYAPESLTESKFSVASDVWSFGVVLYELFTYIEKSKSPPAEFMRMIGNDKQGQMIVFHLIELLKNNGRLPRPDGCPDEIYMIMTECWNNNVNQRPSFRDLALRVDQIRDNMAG
smiles,measurement,value
CN(C(=O)CN1CCOCC1)c1ccc2sc3c(-c4cccc5c(=O)cc(N6CC7CCC(C6)O7)oc45)cccc3c2c1 [NU5455],inhibition at 1 µM,-13.8%

# — article PMC6934184, “Selective DNA-PKcs inhibition extends the therapeutic index of localized radiotherapy and chemotherapy” (The Journal of Clinical Investigation, 2019)
